From ChEMBL document CHEMBL1201862, “PubChem BioAssay data set” (2004)
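Growth conditions: 96-well plates. Treatment: test compound, 48 hours, 5 concentrations. Analysis: linear interpolation between bracketing concentrations; unreached endpoints set to highest concentration. GI50 = concentration required for 50% inhibition of growth.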 Calls of active or inactive are those of the source. Rule as the data show it: active = GI50 up to about 1.1 µM and inactive = higher.

Experiments:
Test in all cases: NCI tumour cell line growth inhibition, 48 h
[1] = system: MCF7
[2] = system: UACC-257
[3] = system: SF-539
[4] = system: KM12
[5] = system: MDA-MB-231
[6] = system: OVCAR-8
[7] = system: UO-31
[8] = system: NCI-H226
[9] = system: NCI-H460
[10] = system: SK-MEL-5
[11] = system: CCRF-CEM
[12] = system: A498
[13] = system: OVCAR-4
[14] = system: U-251
[15] = system: SW-620
[16] = system: HCT-116
[17] = system: DU-145
[18] = system: COLO 205
[19] = system: SK-MEL-28
[20] = system: HOP-62
[21] = system: EKVX
[22] = system: MOLT-4
[23] = system: HCC 2998
[24] = system: NCI-H23
[25] = system: SF-268
[26] = system: RPMI-8226
[27] = system: SK-MEL-2
[28] = system: HT-29
[29] = system: HL-60
[30] = system: Malme-3M
[31] = system: RXF 393
[32] = system: PC-3
[33] = system: SF-295
[34] = system: HCT-15
[35] = system: Hs-578T
[36] = system: MDA-MB-435
[37] = system: SNB-75
[38] = system: 786-0
[39] = system: ACHN
[40] = system: LOX IMVI
[41] = system: OVCAR-3
[42] = system: SN12C
[43] = system: IGROV-1
[44] = system: HOP-92
[45] = system: NCI/ADR-RES
[46] = system: SR
[47] = system: NCI-H522
[48] = system: CAKI-1
[49] = system: A549
[50] = system: OVCAR-5
[51] = system: TK-10
[52] = system: K562
[53] = system: BT-549
[54] = system: MDA-N
[55] = system: SK-OV-3
[56] = system: M14
[57] = system: T47D
[58] = system: UACC-62
[59] = system: SNB-19

Structure (SMILES): Cc1cn([C@H]2[C@@H](CO)C[C@H]2O)c(=O)[nH]c1=O
- GI50 [1]: > 100 µM (inactive)
- GI50 [2]: 50.4 µM (inactive)
- GI50 [3]: > 100 µM (inactive)
- GI50 [4]: > 100 µM (inactive)
- GI50 [5]: > 100 µM (inactive)
- GI50 [6]: > 100 µM (inactive)
- GI50 [7]: > 100 µM (inactive)
- GI50 [8]: > 100 µM (inactive)
- GI50 [9]: > 100 µM (inactive)
- GI50 [10]: > 100 µM (inactive)
- GI50 [11]: > 100 µM (inactive)
- GI50 [12]: > 100 µM (inactive)
- GI50 [13]: > 100 µM (inactive)
- GI50 [14]: > 100 µM (inactive)
- GI50 [15]: > 100 µM (inactive)
- GI50 [16]: > 100 µM (inactive)
- GI50 [17]: > 100 µM (inactive)
- GI50 [18]: > 100 µM (inactive)
- GI50 [19]: > 100 µM (inactive)
- GI50 [20]: > 100 µM (inactive)
- GI50 [21]: > 100 µM (inactive)
- GI50 [22]: > 100 µM (inactive)
- GI50 [23]: > 100 µM (inactive)
- GI50 [24]: > 100 µM (inactive)
- GI50 [25]: > 100 µM (inactive)
- GI50 [26]: > 100 µM (inactive)
- GI50 [27]: > 100 µM (inactive)
- GI50 [28]: > 100 µM (inactive)
- GI50 [29]: > 100 µM (inactive)
- GI50 [30]: > 100 µM (inactive)
- GI50 [31]: > 100 µM (inactive)
- GI50 [32]: > 100 µM (inactive)
- GI50 [33]: > 100 µM (inactive)
- GI50 [34]: > 100 µM
- GI50 [35]: > 100 µM (inactive)
- GI50 [36]: > 100 µM (inactive)
- GI50 [37]: > 100 µM (inactive)
- GI50 [38]: > 100 µM (inactive)
- GI50 [39]: > 100 µM (inactive)
- GI50 [40]: > 100 µM (inactive)
- GI50 [41]: > 100 µM (inactive)
- GI50 [42]: > 100 µM (inactive)
- GI50 [43]: > 100 µM (inactive)
- GI50 [44]: > 100 µM (inactive)
- GI50 [45]: > 100 µM (inactive)
- GI50 [46]: > 100 µM (inactive)
- GI50 [47]: > 100 µM (inactive)
- GI50 [48]: > 100 µM (inactive)
- GI50 [49]: > 100 µM (inactive)
- GI50 [50]: > 100 µM (inactive)
- GI50 [51]: > 100 µM (inactive)
- GI50 [52]: > 100 µM (inactive)
- GI50 [53]: > 100 µM (inactive)
- GI50 [54]: > 100 µM (inactive)

Structure (SMILES): COc1ccc2oc(=N)c(C(=O)Nc3ccccn3)cc2c1
- GI50 [1]: 35.1 µM (inactive)
- GI50 [2]: > 100 µM (inactive)
- GI50 [55]: > 100 µM (inactive)
- GI50 [4]: > 100 µM (inactive)
- GI50 [5]: > 100 µM (inactive)
- GI50 [6]: > 100 µM (inactive)
- GI50 [8]: 60.3 µM (inactive)
- GI50 [9]: > 100 µM (inactive)
- GI50 [10]: > 100 µM (inactive)
- GI50 [11]: > 100 µM (inactive)
- GI50 [12]: > 100 µM (inactive)
- GI50 [56]: > 100 µM (inactive)
- GI50 [13]: > 100 µM (inactive)
- GI50 [14]: > 100 µM (inactive)
- GI50 [15]: > 100 µM (inactive)
- GI50 [16]: > 100 µM (inactive)
- GI50 [17]: > 100 µM (inactive)
- GI50 [18]: > 100 µM (inactive)
- GI50 [19]: > 100 µM (inactive)
- GI50 [20]: > 100 µM (inactive)
- GI50 [21]: 62.4 µM (inactive)
- GI50 [22]: > 100 µM (inactive)
- GI50 [23]: > 100 µM (inactive)
- GI50 [24]: > 100 µM (inactive)
- GI50 [57]: 37 µM (inactive)
- GI50 [25]: > 100 µM (inactive)
- GI50 [26]: > 100 µM (inactive)
- GI50 [27]: 23.2 µM (inactive)
- GI50 [28]: > 100 µM (inactive)
- GI50 [29]: > 100 µM (inactive)
- GI50 [30]: 61.2 µM (inactive)
- GI50 [31]: > 100 µM (inactive)
- GI50 [58]: 71.4 µM (inactive)
- GI50 [32]: > 100 µM (inactive)
- GI50 [34]: > 100 µM
- GI50 [35]: > 100 µM (inactive)
- GI50 [36]: > 100 µM (inactive)
- GI50 [37]: > 100 µM (inactive)
- GI50 [38]: > 100 µM (inactive)
- GI50 [39]: 76 µM (inactive)
- GI50 [40]: > 100 µM (inactive)
- GI50 [41]: > 100 µM (inactive)
- GI50 [42]: > 100 µM (inactive)
- GI50 [43]: 53.6 µM (inactive)
- GI50 [44]: > 100 µM (inactive)
- GI50 [45]: > 100 µM (inactive)
- GI50 [46]: > 100 µM (inactive)
- GI50 [48]: > 100 µM (inactive)
- GI50 [49]: > 100 µM (inactive)
- GI50 [50]: > 100 µM (inactive)
- GI50 [59]: 87.1 µM (inactive)
- GI50 [52]: > 100 µM (inactive)
- GI50 [53]: > 100 µM (inactive)

Structure (SMILES): C/C=C/c1c(O)c(=O)c2c(OC)cc(OC)c3c4c(OC)cc(OC)c5c(=O)c(O)c(/C=C/C)c(c1c23)c54
- GI50 [1]: 14.5 µM (inactive)
- GI50 [2]: 16.5 µM (inactive)
- GI50 [3]: 3.61 µM (inactive)
- GI50 [55]: 39.9 µM (inactive)
- GI50 [4]: 10.9 µM (inactive)
- GI50 [5]: 10.4 µM (inactive)
- GI50 [6]: 6.35 µM (inactive)
- GI50 [7]: 1.64 µM (inactive)
- GI50 [8]: < 0.01 µM (active)
- GI50 [9]: 9.48 µM (inactive)
- GI50 [10]: 5.73 µM (inactive)
- GI50 [11]: 5.46 µM (inactive)
- GI50 [12]: 32.6 µM (inactive)
- GI50 [56]: 9.42 µM (inactive)
- GI50 [13]: 13 µM (inactive)
- GI50 [14]: 7.23 µM (inactive)
- GI50 [15]: 6.55 µM (inactive)
- GI50 [16]: 4.84 µM (inactive)
- GI50 [17]: 8.07 µM (inactive)
- GI50 [18]: 3.7 µM (inactive)
- GI50 [19]: 16.6 µM (inactive)
- GI50 [20]: 16.3 µM (inactive)
- GI50 [21]: 16.6 µM (inactive)
- GI50 [22]: 4.03 µM (inactive)
- GI50 [23]: 16.6 µM (inactive)
- GI50 [24]: 7.59 µM (inactive)
- GI50 [25]: 7.66 µM (inactive)
- GI50 [26]: 6.92 µM (inactive)
- GI50 [27]: 10.2 µM (inactive)
- GI50 [28]: 6.22 µM (inactive)
- GI50 [30]: 6.25 µM (inactive)
- GI50 [58]: 6.3 µM (inactive)
- GI50 [32]: 6.37 µM (inactive)
- GI50 [33]: 44.5 µM (inactive)
- GI50 [34]: 6.49 µM
- GI50 [36]: 5.82 µM (inactive)
- GI50 [37]: 12.2 µM (inactive)
- GI50 [38]: 14.9 µM (inactive)
- GI50 [39]: 2.86 µM (inactive)
- GI50 [40]: 8.55 µM (inactive)
- GI50 [41]: 3.99 µM (inactive)
- GI50 [42]: 16.5 µM (inactive)
- GI50 [43]: 5.96 µM (inactive)
- GI50 [44]: 14.4 µM (inactive)
- GI50 [45]: 14.5 µM (inactive)
- GI50 [46]: > 100 µM (inactive)
- GI50 [47]: 4.71 µM (inactive)
- GI50 [48]: 6.14 µM (inactive)
- GI50 [49]: 5.97 µM (inactive)
- GI50 [50]: 20.5 µM (inactive)
- GI50 [51]: > 10 µM (inactive)
- GI50 [59]: 1.95 µM (inactive)
- GI50 [52]: 3.4 µM (inactive)
- GI50 [53]: 3.1 µM (inactive)
- GI50 [54]: 6.87 µM (inactive)
